Values belong to the molecule of their own block, whether it stands above or below them.
Legend:
mclk1 −/− ES cells [1] = test: Sensitivity to cell death-inducing agents (trypan blue exclusion); type: cell-based, mouse; settings: for Sensitivity of mclk1 −/− ES cells to the cell death-inducing agent: compared with mclk1 +/+ cells, etoposide 20 μM 24 h, anisomysin 2 μM 24 h, staurosporine 0.4 μM 24 h, all-trans retinoic acid 1 μM 96 h, sodium azide 15 μM 24 h
Description: We tested serum starvation (48 hours) and treatment with etoposide (20 μM, 24 hours), anisomysin (2 μM, 24 hours), staurosporine (0.4 μM; 24 hours), all-trans retinoic acid (1 μM, 96 hours) and sodium azide (15 μM, 24 hours).

mclk1 −/− ES cells [2] = test: Oxygen consumption; type: cell-based, mouse; settings: for Oxygen consumption, percent of the wild-type phenotype: number in brackets; for Effect on low respiration, slow growth, and LIF resistance phenotypes: sentence also covers growth and LIF assays
mclk1 +/+ ES cells [3] = test: Oxygen consumption; type: cell-based, mouse; design: Oxygen consumption: scale not given here; settings: for Oxygen consumption, percent of the wild-type phenotype: number in brackets
mclk1 +/+ ES cells [4] = test: LIF requirement assay; type: cell-based, mouse; design: LIF requirement [% undifferentiated colonies, n = 300]: dose or concentration left out as unconfirmed; settings: for LIF requirement [% undifferentiated colonies, n = 300]: day 3, medium with LIF; for LIF requirement, percent of the wild-type phenotype: number in brackets
Description: (§1) ES cells were plated at a density of 500 cells/cm^2 in gelatin-coated 6-well plates in ES cell medium containing various concentration of LIF. Three days after inoculation, the proportion of undifferentiated colonies was determined after scoring the morphology of 300 randomly chosen colonies.

Mitochondrial complex II = target: T1, Mitochondrial complex II (Mus musculus, UniProt Q9CQA3+Q9CXV1+Q9CZB0); test: Mitochondrial complex II activity of mclk1 −/− ES cells; type: biochemical
T1 construct: mitochondria (containing 50 μg protein) were pre-incubated with reaction buffer; endogenous in cells; host or cells: mitochondria isolated from mouse mclk1 +/+ and mclk1 -/- ES cells
Description: Mitochondrial complex II activity was measured as follows: mitochondria (containing 50 μg protein) were pre-incubated with reaction buffer ([…]) for 10 minutes at room temperature. The reaction was started by adding 2 μg/ml Antimycin A, 2 μg/ml Rotenone, 2 mM KCN, 50 μM 2,6-Dichlorophenolindophenol (Sigma) in the presence or absence of 65 μM Q1. The linear decrease in absorbance at 600 nm was recorded (ε=21 mM-1 cm^−1).

mclk1 +/+ ES cells [5] = test: Reactive oxygen species measurement (DCHF-DA fluorescence); type: cell-based, mouse; settings: for Basal ROS levels, percent of the wild-type phenotype / Induced ROS levels, percent of the wild-type phenotype: number in brackets; for Induced ROS levels: oxidative stress induced by 0.1 mM FeSO4 and 0.2 mM sodium ascorbate
Description: (§2) For the fluorimetric measurement of ROS, cells were incubated with 10 μM DCHF-DA (Molecular Probes) for 20 min at 37° C. ROS levels were measured fluorimetrically with excitation and emission wavelenghts of 495 nm and 530 nm, respectively. Oxidative stress was induced by incubating the cells loaded with DCHF-DA with 0.1 mM FeSO4 and 0.2 mM sodium ascorbate.

mclk1 −/− ES cells [6] = test: as above; type: cell-based, mouse; settings: for Basal ROS levels, percent of the wild-type phenotype / Induced ROS levels, percent of the wild-type phenotype: number in brackets; for Induced ROS levels: oxidative stress induced by 0.1 mM FeSO4 and 0.2 mM sodium ascorbate
Description: as §2

mclk1 +/+ ES cells [7] = test: Cell death assay: resistance to menadione (trypan blue exclusion); type: cell-based, mouse; settings: for Resistance to menadione [% viability]: 24 hours in menadione 6 μM, with the supplement named as label; for Resistance to menadione, percent of the wild-type phenotype: number in brackets
Description: (§3) Cells were seeded in six-well dishes at 1×10^5/well in ES cell medium with or without supplements (UQ9: 0.16 μM, sodium pyvurate: 110 mg/L). At different time points, the cells were trypsinized and counted with a hemocytometer. The cells were also analyzed by the trypan blue exclusion method 24 hours after treatment with menadione (6 μM).

mclk1 −/− ES cells [8] = test: as above; type: cell-based, mouse; settings: for Resistance to menadione [% viability]: 24 hours in menadione 6 μM, with the supplement named as label; for Resistance to menadione, percent of the wild-type phenotype: number in brackets
Description: as §3

mclk1 +/+ ES cells [9] = test: Growth rate (cell multiplication); type: cell-based, mouse; settings: for Cell multiplication, percent of the wild-type phenotype: number in brackets; for Cell multiplication: number of cells on day 5, day 1 being 1 × 10^5
Description: as §3

mclk1 −/− ES cells [10] = test: Growth rate (cell multiplication); type: cell-based, mouse; settings: for Cell multiplication, percent of the wild-type phenotype: number in brackets; for Cell multiplication: number of cells on day 5, day 1 being 1 × 10^5
Description: as §3

mclk1 −/− ES cells [11] = test: LIF requirement assay; type: cell-based, mouse; settings: number in brackets
Description: as §1

[12] = mclk1 −/− ES cells, number in brackets

T1 sequence (Q8K2B3 43-664 partner): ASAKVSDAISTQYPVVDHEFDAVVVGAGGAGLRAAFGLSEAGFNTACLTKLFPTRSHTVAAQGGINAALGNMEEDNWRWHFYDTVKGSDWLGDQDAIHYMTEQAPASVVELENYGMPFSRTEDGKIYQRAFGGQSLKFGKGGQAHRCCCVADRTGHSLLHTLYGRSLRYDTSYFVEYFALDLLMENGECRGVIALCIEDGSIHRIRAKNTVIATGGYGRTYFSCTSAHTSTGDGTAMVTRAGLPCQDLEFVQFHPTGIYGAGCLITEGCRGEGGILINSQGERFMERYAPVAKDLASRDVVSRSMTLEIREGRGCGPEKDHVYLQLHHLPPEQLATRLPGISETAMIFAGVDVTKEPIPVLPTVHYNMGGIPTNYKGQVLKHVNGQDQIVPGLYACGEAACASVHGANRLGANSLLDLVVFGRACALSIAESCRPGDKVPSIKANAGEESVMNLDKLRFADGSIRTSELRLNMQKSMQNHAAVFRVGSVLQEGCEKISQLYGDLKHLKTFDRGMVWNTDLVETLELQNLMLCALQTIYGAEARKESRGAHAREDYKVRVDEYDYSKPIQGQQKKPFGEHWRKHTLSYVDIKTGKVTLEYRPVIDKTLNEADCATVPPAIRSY
T1 sequence (Q9CQA3 31-282): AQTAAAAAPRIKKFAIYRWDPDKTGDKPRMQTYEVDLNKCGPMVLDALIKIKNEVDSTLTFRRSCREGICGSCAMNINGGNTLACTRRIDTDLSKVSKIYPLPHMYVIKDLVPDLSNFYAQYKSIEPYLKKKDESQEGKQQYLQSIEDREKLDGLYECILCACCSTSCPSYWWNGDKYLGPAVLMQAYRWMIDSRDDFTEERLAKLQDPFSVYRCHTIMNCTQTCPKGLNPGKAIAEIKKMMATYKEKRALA
T1 sequence (Q9CZB0 30-169): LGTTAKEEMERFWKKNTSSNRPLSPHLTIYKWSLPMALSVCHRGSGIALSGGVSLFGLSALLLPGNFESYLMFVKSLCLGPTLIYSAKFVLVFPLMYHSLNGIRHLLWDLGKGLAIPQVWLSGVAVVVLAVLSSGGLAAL
T1 sequence (Q9CXV1 57-159): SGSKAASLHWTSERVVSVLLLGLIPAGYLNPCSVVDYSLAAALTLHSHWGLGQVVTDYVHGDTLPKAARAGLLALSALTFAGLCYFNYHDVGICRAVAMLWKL

Structure (SMILES): COc1cc([C@@H]2c3cc4c(cc3[C@@H](O[C@@H]3O[C@@H]5CO[C@@H](C)O[C@H]5[C@H](O)[C@H]3O)[C@H]3COC(=O)[C@H]23)OCO4)cc(OC)c1O [etoposide]
- Sensitivity of mclk1 −/− ES cells to the cell death-inducing agent (mclk1 −/− ES cells [1]): resistant

- Mitochondrial complex II activity without exogenous Q1 (Mitochondrial complex II; mclk1 −/− ES cells grown with the supplement): 9.1 ± 0.5 nmol/min/mg protein
- Mitochondrial complex II activity with exogenous Q1 (Mitochondrial complex II; mclk1 −/− ES cells grown with the supplement, Q1 added in vitro): 39.0 ± 3.5 nmol/min/mg protein
- Mitochondrial complex II activity with exogenous Q1, percent of the wild-type phenotype (Mitochondrial complex II; [12]): (64) percent of the wild-type phenotype
- Mitochondrial complex II activity without exogenous Q1, percent of the wild-type phenotype (Mitochondrial complex II; [12]): (60) percent of the wild-type phenotype
Structure (SMILES): COC1=C(OC)C(=O)C(C/C=C(\C)CC/C=C(\C)CC/C=C(\C)CC/C=C(\C)CC/C=C(\C)CC/C=C(\C)CC/C=C(\C)CC/C=C(\C)CC/C=C(\C)CCC=C(C)C)=C(C)C1=O [UQ9, ubiquinone]
- Oxygen consumption (mclk1 −/− ES cells [2]): 6.8 ± 0.7 103 μl O2/sec/μg of protein
- Oxygen consumption, percent of the wild-type phenotype (mclk1 −/− ES cells [2]): (72) percent of the wild-type phenotype
- Effect on low respiration, slow growth, and LIF resistance phenotypes (mclk1 −/− ES cells [2]): ameliorated
- Oxygen consumption (mclk1 +/+ ES cells [3]): 8.96 ± 0.8 103 μl O2/sec/μg of protein
- Oxygen consumption, percent of the wild-type phenotype (mclk1 +/+ ES cells [3]): (96) percent of the wild-type phenotype
- LIF requirement [% undifferentiated colonies, n = 300] (mclk1 +/+ ES cells [4]): 39.0 ± 18.5 % undifferentiated colonies
- LIF requirement, percent of the wild-type phenotype (mclk1 +/+ ES cells [4]): (90) percent of the wild-type phenotype
- Basal ROS levels (mclk1 +/+ ES cells [5]): 3.8 ± 0.2 Fluorescence Unit × 100/μg pro
- Basal ROS levels, percent of the wild-type phenotype (mclk1 +/+ ES cells [5]): (94) percent of the wild-type phenotype
- Induced ROS levels, percent of the wild-type phenotype (mclk1 +/+ ES cells [5]): (100) percent of the wild-type phenotype
- Induced ROS levels (mclk1 +/+ ES cells [5]): 11.5 ± 0.5 Fluorescence Unit × 100/μg Pro
- Basal ROS levels (mclk1 −/− ES cells [6]): 2.4 ± 0.3 Fluorescence Unit × 100/μg pro
- Basal ROS levels, percent of the wild-type phenotype (mclk1 −/− ES cells [6]): (59) percent of the wild-type phenotype
- Induced ROS levels, percent of the wild-type phenotype (mclk1 −/− ES cells [6]): (57) percent of the wild-type phenotype
- Induced ROS levels (mclk1 −/− ES cells [6]): 6.7 ± 1.2 Fluorescence Unit × 100/μg Pro
- Resistance to menadione [% viability] (mclk1 +/+ ES cells [7]): 24 ± 2.9 % viability
- Resistance to menadione, percent of the wild-type phenotype (mclk1 +/+ ES cells [7]): (105) percent of the wild-type phenotype
- Resistance to menadione [% viability] (mclk1 −/− ES cells [8]): 91.3 ± 3.4 % viability
- Resistance to menadione, percent of the wild-type phenotype (mclk1 −/− ES cells [8]): (403) percent of the wild-type phenotype
- Cell multiplication, percent of the wild-type phenotype (mclk1 +/+ ES cells [9]): (100) percent of the wild-type phenotype
- Cell multiplication (mclk1 +/+ ES cells [9]): 25.3 ± 5.5 ×10^5 cells
- Cell multiplication, percent of the wild-type phenotype (mclk1 −/− ES cells [10]): (69) percent of the wild-type phenotype
- Cell multiplication (mclk1 −/− ES cells [10]): 17.5 ± 0.4 ×10^5 cells
- LIF requirement, percent of the wild-type phenotype (mclk1 −/− ES cells [11]): (446) percent of the wild-type phenotype

Structure (SMILES): CC(=O)C(=O)[O-].[Na+] [Sodium pyruvate, sodium pyruvate]
- Oxygen consumption (mclk1 −/− ES cells [2]): 7.9 ± 0.4 103 μl O2/sec/μg of protein
- Oxygen consumption, percent of the wild-type phenotype (mclk1 −/− ES cells [2]): (85) percent of the wild-type phenotype
- Effect on low respiration, slow growth, and LIF resistance phenotypes (mclk1 −/− ES cells [2]): ameliorated
- Oxygen consumption (mclk1 +/+ ES cells [3]): 9.1 ± 0.4 103 μl O2/sec/μg of protein
- Oxygen consumption, percent of the wild-type phenotype (mclk1 +/+ ES cells [3]): (98) percent of the wild-type phenotype
- LIF requirement [% undifferentiated colonies, n = 300] (mclk1 +/+ ES cells [4]): 39.3 ± 12.7 % undifferentiated colonies
- LIF requirement, percent of the wild-type phenotype (mclk1 +/+ ES cells [4]): (90) percent of the wild-type phenotype
- Resistance of mclk1 −/− cells to cell death-inducing agents upon treatment with sodium pyruvate (mclk1 −/− ES cells [1]; etoposide, anisomycin, all-trans retinoic acid, serum withdrawal): indistinguishable from that of the mclk1 +/+ cells
- Basal ROS levels (mclk1 +/+ ES cells [5]): 4.1 ± 0.3 Fluorescence Unit × 100/μg pro
- Basal ROS levels, percent of the wild-type phenotype (mclk1 +/+ ES cells [5]): (100) percent of the wild-type phenotype
- Induced ROS levels, percent of the wild-type phenotype (mclk1 +/+ ES cells [5]): (102) percent of the wild-type phenotype
- Induced ROS levels (mclk1 +/+ ES cells [5]): 11.8 ± 1.2 Fluorescence Unit × 100/μg Pro
- Basal ROS levels (mclk1 −/− ES cells [6]): 2.3 ± 0.2 Fluorescence Unit × 100/μg pro
- Basal ROS levels, percent of the wild-type phenotype (mclk1 −/− ES cells [6]): (57) percent of the wild-type phenotype
- Induced ROS levels, percent of the wild-type phenotype (mclk1 −/− ES cells [6]): (70) percent of the wild-type phenotype
- Induced ROS levels (mclk1 −/− ES cells [6]): 8.1 ± 1.1 Fluorescence Unit × 100/μg Pro
- Resistance to menadione [% viability] (mclk1 +/+ ES cells [7]): 23 ± 7.5 % viability
- Resistance to menadione, percent of the wild-type phenotype (mclk1 +/+ ES cells [7]): (101) percent of the wild-type phenotype
- Resistance to menadione [% viability] (mclk1 −/− ES cells [8]): 68.9 ± 6.5 % viability
- Resistance to menadione, percent of the wild-type phenotype (mclk1 −/− ES cells [8]): (304) percent of the wild-type phenotype
- Cell multiplication, percent of the wild-type phenotype (mclk1 +/+ ES cells [9]): (99) percent of the wild-type phenotype
- Cell multiplication (mclk1 +/+ ES cells [9]): 25.0 ± 4.8 ×10^5 cells
- Cell multiplication, percent of the wild-type phenotype (mclk1 −/− ES cells [10]): (75) percent of the wild-type phenotype
- Cell multiplication (mclk1 −/− ES cells [10]): 18.9 ± 2.8 ×10^5 cells
- LIF requirement, percent of the wild-type phenotype (mclk1 −/− ES cells [11]): (418) percent of the wild-type phenotype

Structure (SMILES): COc1ccc(C[C@H]2NC[C@H](O)[C@H]2OC(C)=O)cc1 [anisomycin]
- Sensitivity of mclk1 −/− ES cells to the cell death-inducing agent (mclk1 −/− ES cells [1]): resistant

Structure (SMILES): CC1=CC(=O)c2ccccc2C1=O [menadione]
- Sensitivity of mclk1 −/− ES cells to the cell death-inducing agent (mclk1 −/− ES cells [1]): resistance
- Resistance to menadione [% viability] (mclk1 +/+ ES cells [7]): 22.7 ± 5.4 % viability
- Resistance to menadione, percent of the wild-type phenotype (mclk1 +/+ ES cells [7]): (100) percent of the wild-type phenotype
- Resistance to menadione [% viability] (mclk1 −/− ES cells [8]): 68.4 ± 5.4 % viability
- Resistance to menadione, percent of the wild-type phenotype (mclk1 −/− ES cells [8]): (304) percent of the wild-type phenotype

Structure (SMILES): CN[C@@H]1C[C@H]2O[C@@](C)([C@@H]1OC)n1c3ccccc3c3c4c(c5c6ccccc6n2c5c31)C(=O)NC4 [staurosporine]
- Sensitivity of mclk1 −/− ES cells to the cell death-inducing agent (mclk1 −/− ES cells [1]): neither resistant nor hyper-sensitive

Structure (SMILES): CC1=C(/C=C/C(C)=C/C=C/C(C)=C/C(=O)O)C(C)(C)CCC1 [all-trans retinoic acid]
- Sensitivity of mclk1 −/− ES cells to the cell death-inducing agent (mclk1 −/− ES cells [1]): resistant

Source: US20060088509A1, “Isolated clk-1 -/- cells from clk-1 heterozygous animals and their use in treating oxidative stress disorders” (priority 2004, published 2006)
